The source of these data is US20260014278A1, “HYBRID PEPTIDE DENDRIMER SYSTEMS AND EXTRAHEPATIC DELIVERY” (NUNTIUS THERAPEUTICS LIMITED, priority 2022, published 2026).

A value given as a limit tells only on which side of the number the result lay.

The test system of test [1] is mouse macrophages. Put plainly: eGFP mRNA transfection of mouse macrophages with or without mannose-dendrimer coat. Format: cell-based. On the procedure: J774.2 cells were subcultured in DMEM supplemented with 2 mM glutamax and 10% heat-inactivated FBS (complete media). Twice a week (at about 70-80% confluency; every 3-4 days), cells were scrapped and collected into Falcon tubes, and pelleted at 400 g for 5 minutes. The cells were resuspended in complete media, counted and seeded into 10 cm dishes at a density of 1.7-2.5E+4 cells/cm^2. For M2 polarisation, the cells were treated with complete media supplemented with 20 ng/ml recombinant murine IL-4 and 20 ng/ml recombinant murine IL-13 (activation media) over a 48 hr period. After 24 hrs in IL-4 and IL-13 containing medium, the cells scrapped and collected as described above. The cells were seeded into 24-well plates at a density of 1.2E+5 cells/well in 0.5mls/well complete media containing 20 ng/ml IL-4 and IL-13.
The media overlaying the polarised J774.2 cells was aspirated and exchanged with 480 ul/well activation media. 120 ul/well of each test condition (total volume was 600 ul/well) was added (test conditions were prepared in 25 mM HEPES solution). Control conditions were prepared consisting of neat 25 mM HEPES and an mRNA control. Between addition of each test condition the plate was shaken back and forth to ensure mixing. The plate was placed into the incubator overnight.
Staining and fixation for both human and mouse-derived macrophages was carried out as follows. After 24 hrs the media overlaying each test condition was transferred to corresponding 1.5 ml Eppendorf tubes (in order to conserve cells that may have died during transfection). Cells were then washed with 300 ul/well PBS which was transferred to the corresponding tubes. 500 ul/well 5 mM EDTA was added to each well and the plate(s) transferred to the 37° C. incubator for 5-10 minutes until the cells started to detach. Cells were then transferred from the plate to the corresponding 1.5 ml tubes. Cells were pelleted down at 300 g for 5 minutes and resuspended in 100 ul/sample fixable Live/Dead Aqua stain. ArC beads were stained with 3 ul neat Live/Dead Aqua for compensation. These cells were stained on ice for 30 minutes. Following this, the tubes were spun down at 300 g for 5 minutes. The supernatant was discarded, and the cells were resuspended in 500 ul/sample PBS. Negative ArC beads were added to the compensation control. GFP compensation beads were dispensed into separate tube as the GFP compensation control. The samples were spun down at 300 g for 5 minutes. Samples were then resuspended in 100 ul/sample of Reagent A from the Invitrogen Fix/Perm kit and left at room temperature for 15 minutes. The samples were spun down at 400 g for 5 minutes and the supernatant was disposed. The samples were once again washed with PBS and spun down at 300 g for 5 minutes. The cells were finally resuspended in 400 ul/sample FACS buffer (PBS+2 mM EDTA+0.5% w/v BSA) for flow analysis. Samples were stored in the fridge prior to flow analysis and run within 24 hrs of fixation.
12 μl of a nanoparticle formulation was aliquoted into a sterile 0.5 ml polypropylene tube. 4 μl of a 0.3 mg/ml, 0.6 mg/ml or 1.8 mg/ml solution of (Ac-EEEE)2[…][(S-S)-α-D-Thiomannose] (for a mRNA:coating mass ratio of 1:0.5, 1:1 or 1:3, respectively) was mixed by rapidly pipetting up and down 10-15 times, and allowed to incubate for 5 minutes.
Macrophages, and in particular M2-phenotype macrophages, are known to have enriched surface expression of the receptor CD206, the ligand for which is mannose.

In test [2] the test system is human THP-1 cells. Put plainly: eGFP mRNA transfection of human THP-1 macrophages, flow cytometry. The test is classed as cell-based. Conditions: THP-1, FIG. 3. On the procedure: THP-1 cells (a human leukaemia monocytic cell line) were sub-cultured in RPMI (with glutamax)+10% heat inactivated FBS (complete media) at 3E+5 cells/ml and passaged every 3-4 days. For macrophage polarisation 7.5E+6 cells were seeded in T75 flasks in a total of 20 ml complete media containing 5 ng/ml PMA (1:1000 of 5 ug/ml stock). The cells were transferred to the 37° C. incubator for overnight. After 24 hrs, THP-1 cells were washed with complete medium and a fresh flask complete medium (not containing PMA) was overlaid on the cells. After a further 72 hrs, the complete medium was exchanged for fresh complete media containing 20 ng/ml rhlL-4 (1:500 of 10 μg/ml stock). 24 hrs later the cells were harvested by firstly washing the cells with PBS followed by a 5 minute treatment at 37° C. with 5 mM EDTA (diluted in PBS). Cells were spun down at 300 g for 5 minutes and resuspended in a complete medium containing 20 ng/ml rhlL-4 at 2.4E+5 cells/mi. 500 ul of cells were seeded into each well on a 24-well plate and left overnight in the 37° C. incubator.
The medium overlaying the polarised THP-1 cells was aspirated and exchanged with 480 ul/well complete media containing 20 ng/ml rhlL-4. […]
Data were collected using a BD LSRFortessa I analyser running […] software (Beckton Dickinson). All collected data were analysed using FlowJo 10.0 software. […]

In the case of (RHL)4(KRHL)2KGSC-NH2 [GSCG1,2-RHL], the “transfection efficiency with mannose-conjugated dendrimer coat versus uncoated” value in test [1] (NP=0.6:1, lipid:mRNA w/w 10:1, coat 3:1 (3 eq) coating:mRNA, FIG. 7) is reported as “further increase the transfection efficiency”. The transfection efficiency is given as greater than 70% in test [1] (NP=0.6:1, lipid:mRNA w/w 10:1, uncoated, FIG. 7); roughly 25% in test [1] (NP=8:1, lipid:mRNA w/w 2.5:1, coated with (Ac-EEEE)2KGSGGSGGSC[(S-S)-α-D-Thiomannose] at 1:1 (1 eq) coating:mRNA, FIG. 4); 2-3% in test [1] (NP=8:1, lipid:mRNA w/w 2.5:1, uncoated, FIG. 4); roughly 75% in test [1] (NP=8:1, lipid:mRNA w/w 5:1, dendrimer-mannose coat 0.5:1 (0.5 eq) coating:mRNA, FIG. 5); roughly 60% in test [1] (NP=8:1, lipid:mRNA w/w 5:1, uncoated, lipid-only nanoparticles as comparator, FIG. 5). Further, the transfection rate in test [1] (NP=8:1, DOTMA/DOPE:mRNA w/w 10:1, uncoated, FIG. 6) is listed as roughly 60%. The “increase of transfection efficiency at NP=0.6:1 compared to NP=5:1” value in test [2] is “approximately 10%”.
